Assay results from ChEMBL document CHEMBL1145275, “Dihydroindenoisoquinolines function as prodrugs of indenoisoquinolines” (2005).

Experiments:
[1] = tested on: Cell line; test: Mean graph midpoint for growth inhibition of all human cancer cell lines; assay type: functional
[2] = Growth inhibition against Colon HCT116 cell line; assay type: functional, Homo sapiens, HCT-116
[3] = (§1) Growth inhibition against Breast MDA-MB-435 cell line; assay type: functional; conditions: Homo sapiens
[4] = (§2) Growth inhibition against Melanoma UACC-62 cell line; assay type: functional, Homo sapiens
[5] = Growth inhibition against CNS SF-539 cell line; assay type: functional; conditions: Homo sapiens
[6] = Growth inhibition against Renal SN12C cell line; assay type: functional; conditions: Homo sapiens
[7] = tested on: HOP-62; test: Growth inhibition against Lung HOP-62 cell line; assay type: functional; conditions: Homo sapiens
[8] = target: T1, DNA topoisomerase 1 (Homo sapiens) (UniProt P11387); test: Concentration tested for Top1-mediated DNA cleavage (concentration taken upto 100 uM); ++: similar activity as the parent compound 3a; assay type: functional
T1 sequence (whole entry): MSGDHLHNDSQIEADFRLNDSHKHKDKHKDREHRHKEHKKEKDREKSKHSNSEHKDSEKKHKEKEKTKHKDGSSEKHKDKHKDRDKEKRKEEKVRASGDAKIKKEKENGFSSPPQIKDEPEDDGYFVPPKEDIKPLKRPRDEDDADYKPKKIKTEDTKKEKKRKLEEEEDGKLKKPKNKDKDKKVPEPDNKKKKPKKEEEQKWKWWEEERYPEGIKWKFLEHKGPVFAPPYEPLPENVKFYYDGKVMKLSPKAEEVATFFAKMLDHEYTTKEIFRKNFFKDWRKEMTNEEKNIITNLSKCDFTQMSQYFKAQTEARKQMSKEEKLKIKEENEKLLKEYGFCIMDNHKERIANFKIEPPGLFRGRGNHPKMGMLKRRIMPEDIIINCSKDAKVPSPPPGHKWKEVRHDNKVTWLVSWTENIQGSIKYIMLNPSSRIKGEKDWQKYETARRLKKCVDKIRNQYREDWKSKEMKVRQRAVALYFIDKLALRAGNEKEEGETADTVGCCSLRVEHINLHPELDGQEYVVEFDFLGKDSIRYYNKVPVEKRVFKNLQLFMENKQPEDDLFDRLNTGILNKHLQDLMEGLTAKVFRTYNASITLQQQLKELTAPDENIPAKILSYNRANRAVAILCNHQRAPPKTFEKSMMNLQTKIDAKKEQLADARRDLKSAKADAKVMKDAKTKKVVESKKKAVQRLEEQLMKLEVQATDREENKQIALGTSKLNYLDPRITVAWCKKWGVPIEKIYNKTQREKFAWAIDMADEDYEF

[9] = target: T1, DNA topoisomerase 1 (Homo sapiens); test: Concentration tested for Top1-mediated DNA cleavage;+: weak activity; assay type: functional
[10] = tested on: SF-539; test: Growth inhibition against CNSSF-539 cell line; assay type: functional; conditions: Homo sapiens
[11] = tested on: DU-145; test: Growth inhibition against ProstateDU-145 cell line; assay type: functional; conditions: Homo sapiens
[12] = Growth inhibition against ColonHCT-116 cell line; assay type: functional; conditions: Homo sapiens
[13] = tested on: OVCAR-3; test: Growth inhibition against OvarianOVCAR-3 cell line; assay type: functional; conditions: Homo sapiens
[14] = tested on: UACC-62; test: as §2; assay type: functional; conditions: Homo sapiens
[15] = tested on: MDA-MB-435; test: as §1; assay type: functional; conditions: Homo sapiens
[16] = target: T1, DNA topoisomerase 1 (Homo sapiens); test: Concentration tested for Top1-mediated DNA cleavage (concentration taken upto 100 uM);0: no activity; assay type: functional
[17] = target: T1, DNA topoisomerase 1 (Homo sapiens); test: Concentration tested for Top1-mediated DNA cleavage (concentration taken upto 100 uM);+: weak activity; assay type: functional
[18] = target: T1, DNA topoisomerase 1 (Homo sapiens); test: Concentration tested for Top1-mediated DNA cleavage (concentration taken upto 100 uM); +++: Good activity; assay type: functional
[19] = target: T1, DNA topoisomerase 1 (Homo sapiens); test: Concentration tested for Top1-mediated DNA cleavage (concentration taken upto 100 uM); assay type: functional
[20] = tested on: P388; test: Ratio of the growth inhibition for P388 resistant cells to that of parental cells; Value expressed as RF (resistance factor); assay type: functional, Homo sapiens
[21] = tested on: HCT-116; test: Ratio of the growth inhibition for HCT116 resistant cells to that of parental cells; Value expressed as RF (resistance factor); assay type: functional, Homo sapiens
[22] = tested on: HCT-116; test: Ratio of the growth inhibition for HCT116 Top1 resistant cells to that of parental cells; Value expressed as RF (resistance factor); assay type: functional, Homo sapiens
[23] = Ratio of the growth inhibition for P388/CPT 45 resistant cells to that of parental cells; Value expressed as RF (resistance factor); assay type: functional, Homo sapiens
[24] = tested on: OVCAR-3; test: Growth inhibition against Ovarian OVCAR-3 cell line; assay type: functional; conditions: Homo sapiens
[25] = tested on: DU-145; test: Growth inhibition against Prostate DU-145 cell line; assay type: functional; conditions: Homo sapiens
[26] = tested on: P388; test: Growth inhibition against P388 cell line; assay type: functional; conditions: Mus musculus
[27] = tested on: HCT-116; test: Growth inhibition against HCT116 cell line; assay type: functional; conditions: Homo sapiens
[28] = Growth inhibition against P388 cell line in; assay type: functional
[29] = tested on: HCT-116; test: Growth inhibition against HCT116 V cell line; assay type: functional; conditions: Homo sapiens
[30] = tested on: HCT-116; test: Growth inhibition against HCT116 DNA topoisomerase 1 in (Top1-deficient and parental tumor cells); assay type: functional; conditions: Homo sapiens
[31] = tested on: HCT-116; test: Ratio of the growth inhibition for Top1 siRNA cells (HCT116-Top1) to that for the vector-control cells (HCT116-V); Value expressed as RF (resistance factor); assay type: functional, Homo sapiens

Molecule `COc1cc2c(cc1OC)[C@@]1(C)C(=O)c3cc4c(cc3[C@H]1N(C)C2=O)OCO4` has an MGM [1] of 51.3 µM, a GI50 [2] of 24 µM and a GI50 ([2]; Homo sapiens, HCT-116) of 43.5 µM. For the same molecule, the GI50 [3] was greater than 100 µM, the GI50 [4] was 58.1 µM and the GI50 ([4]; Homo sapiens, UACC-62) was 82.4 µM. For the same molecule, the GI50 [5] was 96.2 µM, the GI50 [6] was 26 µM and the GI50 [7] was greater than 100 µM. The Concentration [8] was 100 µM.

With `O=C1c2cc3c(cc2[C@@H]2[C@H]1c1ccc([N+](=O)[O-])cc1C(=O)N2CCCCl)OCO3` the Concentration [9] was 100 µM and the MGM [1] was 0.018 µM.

With `COc1cc2c3c(n(C)c(=O)c2cc1OC)-c1cc2c(cc1C3=O)OCO2` the GI50 [10] was 41 µM, the GI50 [11] was 37 µM and the MGM [1] was 20 µM. For the same molecule, the GI50 [12] was 35 µM, the GI50 [13] was 73 µM and the GI50 [14] was 4.2 µM. For the same molecule, the GI50 [15] was 96 µM, the GI50 [6] was 68 µM and the GI50 [7] was 1.3 µM. It also gave a Concentration [8] of 100 µM.

Molecule `C=CCN1C(=O)c2cc(OC)c(OC)cc2[C@H]2C(=O)c3cc4c(cc3[C@H]21)OCO4` has a Concentration [16] of 100 µM and an MGM [1] of 0.98 µM.

In the case of `C=CCn1c2c(c3cc(OC)c(OC)cc3c1=O)C(=O)c1cc3c(cc1-2)OCO3`, the Concentration [17] is reported as 100 µM and the MGM [1] is reported as 4.16 µM.

`O=C1c2cc3c(cc2-c2c1c1ccc([N+](=O)[O-])cc1c(=O)n2CCCCl)OCO3` gave a Concentration [18] of 100 µM and an MGM [1] of 0.83 µM.

`COc1cc2c(cc1OC)[C@H]1C(=O)c3cc4c(cc3[C@H]1N(C)C2=O)OCO4` showed a Concentration [19] of 100 µM, an MGM [1] of 5 µM and an RF [20] of 1. The RF [21] was 1, the RF [22] was 35 and the RF [23] was 128. It also gave a GI50 ([2]; Homo sapiens, HCT-116) of 2 µM, a GI50 [24] of 6.7 µM and a GI50 [25] of 4.1 µM. The GI50 [3] was 17 µM, the GI50 ([4]; Homo sapiens, UACC-62) was 0.42 µM and the GI50 [26] was 0.00988 µM. The GI50 [27] was 0.0599 µM, the GI50 [28] was 1.26 µM and the GI50 [29] was 0.418 µM. For the same molecule, the GI50 [5] was 3.1 µM, the GI50 [6] was 2.1 µM and the GI50 [7] was 9.4 µM. For the same molecule, the GI50 [30] was 0.012 µM and the RF [31] was 7.
